In patent publication US12170135B2, “Systems and methods for evaluating query perturbations” (Recursion Pharmaceuticals, Inc., priority 2019, dated 2024):
“Also recorded” adds a separate entry of the source.

Assays:
[1] = tested on: NF2 deficiency in primary human cells; test: Primary drug screens on NF2 loss-of-function model; format: cell-based; conditions: for rescue of NF2 loss-of-function phenotype: primary screen
Text: To identify novel and effective treatments for NF2, a loss-of-function model of the disease in a primary human cells and screened for molecules that rescue the disease-specific phenotype. […] These figures illustrate results from a series of primary drug screens to identify drug candidates for NF2 from a library of approximately 2000 small molecules. Scores for control perturbations (largely clustered in region 1102), test perturbations (largely clustered in region 1104), and query perturbations (largely clustered in region 1106), are shown in the plots. A small number of hits were algorithmically selected based on their effects in the assay and used for further screening.

SMN protein = conditions: cell-based assays and patients; cited from earlier work
SMA patients = conditions: clinical trials; cited from earlier work
patients with NF2 = conditions: Phase 2 study; cited from earlier work
[2] = tested on: ATM deficiency in A549 cells
Text: (§1) Hits were algorithmically selected based on effect and screened with a higher replicate count in a tertiary screen. […] The length of the wider green bars, such as bar 910, represents changes in individual features of increasing or decreasing magnitude that best represent the ATM disease signature. The impact of each drug on individual features is overlaid in a second, narrower red shaded bar, such as bar 911. […] The order of the features was randomized between individual plots, and individual feature labels are omitted. […] Western blots probed for ATM and phosphorylated Chk2. […] The lower plots represent quantification of phosphorylated Chk2 from the Western Blot, n=3. H=Healthy; *denotes p<0.05, two-sided paired ratio t-test.
(§2) Small molecule compounds were then tested on the A-T disease model using the screening methods described herein.

[3] = tested on: Chk2 phosphorylation in ATM knockdown A549 cells; test: Western blot for phosphorylated Chk2 in siRNA transfected A549 cells treated with H2O2; format: cell-based; conditions: H2O2 treatment
Procedure: Glucocorticoids are identified by the dashed red polygon 901. […] Western blots probed for ATM and phosphorylated Chk2.
To further validate these compounds, disease-specific studies were performed. In response to DNA damage, ATM stimulates phosphorylation of a host of target proteins, including the checkpoint kinase Chk2. As expected, it was observed that siRNA-mediated knockdown of ATM mRNA in the A549 model cell-line suppressed phosphorylation of Chk2 after H2O2 treatment. Moreover, most glucocorticoids tested restored Chk2 phosphorylation to nearly 50% of control levels, with betamethasone and dexamethasone showing the least rescue (FIG. 9C).

[4] = tested on: ATM deficiency in A549 cells; test: Cell Painting phenotypic screen on the A-T disease model (on-target/off-target scores); conditions: ATM disease signature, FIG. 9B
Text: as §1, §2

[5] = tested on: Chk2 phosphorylation in primary fibroblasts derived from a patient with A-T; test: Western blot for phosphorylated Chk2 in primary fibroblasts from a patient with A-T; format: cell-based, human; conditions: H2O2

Structure (SMILES): CCN(CC)CCNC(=O)c1c(C)[nH]c(/C=C2\C(=O)Nc3ccc(F)cc32)c1C [Sunitinib, sunitinib]
- side-effect profile in NF2 screen [1]: minimal increase in side-effect profile

Structure (SMILES): CCCC(CCC)C(=O)O [Valproic acid]
- SMN protein level (SMN protein): increases full length SMN protein
- clinical improvement in SMA (SMA patients): modest clinical improvement

Structure (SMILES): CNC(=O)c1cccc(-c2ccc3c(N4CCOC[C@@H]4C)nc(N4CCOC[C@@H]4C)nc3n2)c1 [AZD2014]
- side-effect profile in NF2 screen [1]: elevated side-effect profile compared to another highly selective mTOR inhibitor
- rescue of NF2 loss-of-function phenotype [1]: strong rescue

Structure (SMILES): CO[C@H]1C[C@@H]2CC[C@@H](C)[C@@](O)(O2)C(=O)C(=O)N2CCCC[C@H]2C(=O)O[C@H]([C@H](C)C[C@@H]2CC[C@@H](OCCO)[C@H](OC)C2)CC(=O)[C@H](C)/C=C(\C)[C@@H](O)[C@@H](OC)C(=O)[C@H](C)C[C@H](C)/C=C/C=C/C=C/1C [everolimus]
- rescue of NF2 loss-of-function phenotype [1]: minimal efficacy
- clinical efficacy in NF2 / meningioma (patients with NF2): failed to demonstrate efficacy

Structure (SMILES): C[C@H]1C[C@H]2[C@@H]3CCC4=CC(=O)C=C[C@]4(C)[C@@]3(F)[C@@H](O)C[C@]2(C)[C@@]1(O)C(=O)CO [betamethasone]
- side effect profile (off-target score) in the screen [2]: greater side effects

Structure (SMILES): CS(=O)(=O)CCNCc1ccc(-c2ccc3ncnc(Nc4ccc(OCc5cccc(F)c5)c(Cl)c4)c3c2)o1 [lapatinib]
- clinical efficacy in NF2 / meningioma (patients with NF2): antitumor activity in a subset of patients
- tolerability in patients with NF2 (patients with NF2): well tolerated

Structure (SMILES): C[C@@H]1C[C@H]2[C@@H]3CCC4=CC(=O)C=C[C@]4(C)[C@@]3(Cl)[C@@H](O)C[C@]2(C)[C@@]1(O)C(=O)CCl [mometasone]
- rescue of Chk2 phosphorylation associated with ATM deficiency [3]: better rescue ATM deficiency
- rescue of Chk2 phosphorylation associated with ATM deficiency ([3]; listed as Mometasone): superior P-Chk2 rescue
- impact on the twenty most prominent phenotypic disease features [4]: rescues a subset of features
- rescue of Chk2 phosphorylation in primary patient-derived cells [5]: dose-dependent rescue of Chk2 phosphorylation; also recorded: dose-dependent increase in Chk2 phosphorylation
